In series [1] the test system is Echinochloa crus-galli. Nature of the series: Herbicidal activity by field soil treatment (Test example 2). It is filed as in vivo. Also noted: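 index 0 to 10 in 10% steps of herbicidal effect with 10 meaning complete death and 0 below 10%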. Particulars: 1000 g effective component per hectare, day 21 after the treatment. The gist of the method:
(§1)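 Seeds of the four weeds sown in field soil in pots; wettable powder diluted in water sprayed pre-emergence on soil surface at 1000 L/ha, giving 1000 g active per hectare. Greenhouse grown; herbicidal effect scored on day 21 after treatment by set criteria.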

Series [2] concerns Indian millet. The series is described as above. It is filed as in vivo. Also on record: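 index 0 to 10 in 10% steps of herbicidal effect with 10 meaning complete death and 0 below 10%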. Particulars: 1000 g effective component per hectare, day 21 after the treatment. Put shortly:
as §1

Series [3] has as its system A. retroflexus. Described as above. It is filed as in vivo. Particulars: 1000 g effective component per hectare, day 21 after the treatment. Also on record: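 index 0 to 10 in 10% steps of herbicidal effect with 10 meaning complete death and 0 below 10%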. The gist of the method: as §1
The subject of the next series is Scirpus juncoides Rocxb. In words: Herbicidal activity by paddy field soil treatment (Test Example 1). It counts as in vivo. Also noted: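 index 0 to 10 in 10% steps of herbicidal effect with 10 meaning complete death and 0 below 10%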. Particulars: applied on water surface, 1000 g of effective component per hectare, day 21 after the treatment. Put shortly: (§2)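 Paddy soil in pots sown with seeds, flooded to 3 cm; next day wettable powder diluted in water applied to water surface at 1000 g active ingredient/ha. Greenhouse-grown; herbicidal effect scored on day 21 after treatment against rating criteria.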

The subject of the next series is Echinochloa oryzicola. The series is described as above. It counts as in vivo. Particulars: 1000 g of effective component per hectare, evaluated on day 21 after the treatment, criteria of Table 72. Also on record: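 index 0 to 10 in 10% steps of herbicidal effect with 10 meaning complete death and 0 below 10%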. The gist of the method:
as §2

A further series relates to Monochoria vaginalis. The description is as above. Particulars: 1000 g of effective component per hectare, evaluated on day 21 after the treatment, criteria of Table 72. Also on record: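 index 0 to 10 in 10% steps of herbicidal effect with 10 meaning complete death and 0 below 10%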. It counts as in vivo. Put shortly: as §2
Series [4] concerns Echinochloa crus-galli. Nature of the series: Herbicidal activity by field foliage treatment (Test example 3). The note with it: 1000 g effective component per hectare, day 14 after the treatment. It is filed as in vivo. Also noted: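 index 0 to 10 in 10% steps of herbicidal effect with 10 meaning complete death and 0 below 10%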. Put shortly: (§3)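 Potted field-soil plants grown 2 weeks in a greenhouse were sprayed over the whole foliage with diluted wettable powder at 1000 L/ha, delivering 1000 g active ingredient per hectare. Herbicidal effect scored by visual criteria 14 days after treatment.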

A further series deals with Setaria viridis. Described as above. The note with it: 1000 g effective component per hectare, day 14 after the treatment. It is filed as in vivo. Put shortly: as §3
The test system of series [5] is Indian millet. The series is described as above. It is filed as in vivo. Also noted: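 index 0 to 10 in 10% steps of herbicidal effect with 10 meaning complete death and 0 below 10%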. Particulars: 1000 g effective component per hectare, day 14 after the treatment. The gist of the method:
(§4)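 Field soil in pots; Indian millet and A. retroflexus grown 2 weeks in greenhouse, then sprayed over whole plant with water-diluted wettable powder at 1000 L/ha, giving 1000 g active component/ha. Herbicidal effect scored by set criteria on day 14 after treatment.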

For series [6], the system named is A. retroflexus. The description is as above. It counts as in vivo. Also on record: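 index 0 to 10 in 10% steps of herbicidal effect with 10 meaning complete death and 0 below 10%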. The note with it: 1000 g effective component per hectare, day 14 after the treatment. The gist of the method:
as §4

The subject of another series is foxtail. In words: Herbicidal activity by field soil treatment (Test example 2). It is filed as in vivo. The note with it: 1000 g effective component per hectare, day 21 after the treatment. The gist of the method: as §1

Structures are written as SMILES.
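For herbicidal effect index, Setaria viridis in this document: index 0 to 10 in 10% steps of herbicidal effect with 10 meaning complete death and 0 below 10%.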

In the case of `Cn1nc(C(=O)O)c(=O)n(-c2ccccc2C#N)c1=O` [V-72, 2-methyl-3,5-dioxo-4-(2-cyanophenyl)-2,3,4,5-tetrahydro-1,2,4-triazine-6-carboxylic acid], the melting point (as a rule, the temperature of the solid-liquid transition) lay in the range of 213 to 215 °C.

`Cn1nc(C(=O)O)c(=O)n(-c2ccccc2)c1=O` [V-50, 2-methyl-3,5-dioxo-4-phenyl-2,3,4,5-tetrahydro-1,2,4-triazine-6-carboxylic acid] had a melting point of 195 to 198 °C.

In the case of `CC(C)c1ccccc1-n1c(=O)c(C(=O)C2=C(O)CCCC2=O)nn(C)c1=O` [I-286], the “herbicidal effect index, Echinochloa crus-galli” value in the series on Echinochloa crus-galli [1] and with Echinochloa crus-galli [4] was 10 throughout. Also, the “herbicidal effect index, Abutilon theophrasti” value in the series with Indian millet [2] and in the series on Indian millet [5] was 9 throughout. The “herbicidal effect index, Amaranthus retroflexus” value in the series with A. retroflexus [3] and in the series on A. retroflexus [6] was 10 throughout. For the same compound, the “herbicidal effect index, S. juncoides Rocxb.” value in the series on Scirpus juncoides Rocxb. turned out to be 9. The “Herbicidal effects index number, Echinochloa oryzicola” value with Echinochloa oryzicola was 10. Also, the “Herbicidal effects index number, Monochoria vaginalis” value in the series on Monochoria vaginalis is given as 10. Also, the “herbicidal effect index, Setaria viridis” value came to 10 with Setaria viridis and 9 in the series on foxtail.

As for `Cn1nc(C(=O)C2=C(O)CCCC2=O)c(=O)n(-c2ccccc2-c2ccccc2)c1=O` [I-269], the “herbicidal effect index, Echinochloa crus-galli” value was determined as 8 in the series with Echinochloa crus-galli [1] and 10 in the series with Echinochloa crus-galli [4]. In addition, the “herbicidal effect index, Abutilon theophrasti” value in the series with Indian millet [2] and with Indian millet [5] was 9 in each case. The “herbicidal effect index, Amaranthus retroflexus” value in the series on A. retroflexus [3] and with A. retroflexus [6] was 10 each time. Also, the “herbicidal effect index, S. juncoides Rocxb.” value in the series with Scirpus juncoides Rocxb. came to 10. In addition, the “Herbicidal effects index number, Echinochloa oryzicola” value with Echinochloa oryzicola was 8. The “Herbicidal effects index number, Monochoria vaginalis” value with Monochoria vaginalis was found to be 8. Further, the “herbicidal effect index, Setaria viridis” value was 8 in the series on Setaria viridis and 9 with foxtail.

Turning to `Cn1nc(C(=O)C2=C(O)CCCC2=O)c(=O)n(-c2c(F)cccc2F)c1=O` [I-80], the “herbicidal effect index, Echinochloa crus-galli” value was found to be 9 with Echinochloa crus-galli [1] and 10 in the series on Echinochloa crus-galli [4]. Moreover, the “herbicidal effect index, Abutilon theophrasti” value in the series with Indian millet [2] and with Indian millet [5] was 9 each time. Besides, the “herbicidal effect index, Amaranthus retroflexus” value in the series on A. retroflexus [3] and in the series on A. retroflexus [6] was 10 in each case. The “herbicidal effect index, S. juncoides Rocxb.” value in the series with Scirpus juncoides Rocxb. is given as 10. Further, the “Herbicidal effects index number, Echinochloa oryzicola” value in the series with Echinochloa oryzicola is recorded as 10. Besides, the “Herbicidal effects index number, Monochoria vaginalis” value with Monochoria vaginalis came out at 10. The “herbicidal effect index, Setaria viridis” value in the series with Setaria viridis was 7; in the series on foxtail, 9.

On to `Cc1ccc(-n2c(=O)c(C(=O)C3=C(O)CCCC3=O)nn(C)c2=O)c(Cl)c1` [I-128], for which the “herbicidal effect index, Echinochloa crus-galli” value came out at 8 with Echinochloa crus-galli [1] and 9 in the series on Echinochloa crus-galli [4]. The “herbicidal effect index, Abutilon theophrasti” value in the series on Indian millet [2] and in the series with Indian millet [5] was 10 each time. Further, the “herbicidal effect index, Amaranthus retroflexus” value in the series on A. retroflexus [3] and in the series on A. retroflexus [6] was 10 each time. In the series with Scirpus juncoides Rocxb., the “herbicidal effect index, S. juncoides Rocxb.” value amounted to 10. Besides, the “Herbicidal effects index number, Echinochloa oryzicola” value in the series on Echinochloa oryzicola came to 8. Besides, the “Herbicidal effects index number, Monochoria vaginalis” value in the series with Monochoria vaginalis is given as 9. The “herbicidal effect index, Setaria viridis” value in the series on Setaria viridis is 10; with foxtail, 9.

Source of the values: patent US8969554B2, “6-acyl-1,2,4-triazine-3,5-dione derivative and herbicides” (Kumiai Chemical Industry Co., Ltd., priority 2010, dated 2015).
